Assay results taken from paper PMC10233829 (ACS Omega, 2023).
In brackets after ≈: the same amount, converted by molar mass. Like-named read-outs stand apart in the source and are kept apart here.

Key:
PC3 cells = test: MTT assay, cytotoxic activity; type: cell-based, human; details: Homo sapiens, PC-3, 72 h, MTT, 72 h
Protocol: Metastatic prostate cancer (PC3) and human immortal keratinocyte (HaCaT) cell lines were purchased from the American Type Culture Collection (ATCC, Rockville, MD, USA) and cultured in MEM (minimal essential medium, Thermo Sci, USA), RPMI 1640 (Roswell Park Memorial Institute, Biowest SAS, France), and DMEM (Dulbecco’s Modified Eagle’s Medium, Biowest SAS, France). Cells were seeded in 6 mL medium in a tissue culture flask (50 mL) in a 37 °C/5% CO2 humidified incubator. […] MTT analysis was performed according to a previous study.[59] Untreated cells were used as controls. Cell absorbance results were inserted into the formula for the relative MTT level (%). It allows to calculate the viability of cells under the influence of the tested compounds. Cell viability was expressed as the percentage of MTT reduction in cells treated with tested compounds compared to the control sample. The relative MTT level was calculated using the formula [100%] = A/B × 100% where A—the test sample absorbance and B—the control sample absorbance.

[1] = MTT assay, cytotoxic activity; type: cell-based; details: human
Protocol: Cells were seeded in 6 mL medium in a tissue culture flask (50 mL) in a 37 °C/5% CO2 humidified incubator. […] MTT analysis was performed according to a previous study.[59] Untreated cells were used as controls. Cell absorbance results were inserted into the formula for the relative MTT level (%). It allows to calculate the viability of cells under the influence of the tested compounds. Cell viability was expressed as the percentage of MTT reduction in cells treated with tested compounds compared to the control sample. The relative MTT level was calculated using the formula [100%] = A/B × 100% where A—the test sample absorbance and B—the control sample absorbance.

M. tuberculosis H37Rv = test: Tuberculostatic activity, Microplate Alamar Blue Assay (MIC); type: cell-based, Mycobacterium tuberculosis; details: Mycobacterium tuberculosis, H37RV, read-out: MIC M. tuberculosis H37Rv
[2] = tested on: M. tuberculosis Spec. 192; test: as above; type: cell-based; details: Mycobacterium tuberculosis, MABA, read-out: MIC M. tuberculosis Spec. 192 (sensitive to tuberculostatics)

COc1cccc2c1C(=O)c1c(O)c3c(c(O)c1C2=O)C[C@@](O)(C(=O)CO)C[C@@H]3O[C@H]1C[C@H](N)[C@H](O)[C@H](C)O1 [doxorubicin, reference compound]
IC50 (PC3 cells): 300 ± 120 nM | IC50 at 72 h [1]: 300 ± 110 nM

CC[C@@H](CO)NCCN[C@@H](CC)CO [ethambutol(EMB), ethambutol, reference compound]
MIC (M. tuberculosis H37Rv; MABA): 2 µg/mL (≈ 9.79 µM) | MIC [2]: 2 µg/mL (≈ 9.79 µM)

NNC(=O)c1ccncc1 [isoniazid (INH), isoniazid, reference compound]
MIC (M. tuberculosis H37Rv): 0.125 µg/mL (≈ 0.911 µM) | MIC [2]: 0.125 µg/mL (≈ 0.911 µM)

CO[C@H]1/C=C/O[C@@]2(C)Oc3c(C)c(O)c4c(O)c(c(/C=N/N5CCN(C)CC5)c(O)c4c3C2=O)NC(=O)/C(C)=C\C=C\[C@H](C)[C@H](O)[C@@H](C)[C@@H](O)[C@@H](C)[C@H](OC(C)=O)[C@@H]1C [rifampicin (RMP), rifampicin, reference compound]
MIC (M. tuberculosis H37Rv; MABA): 1 µg/mL (≈ 1.22 µM) | MIC [2]: 1 µg/mL (≈ 1.22 µM)

[H]/N=C(/N)N[C@H]1[C@H](O)[C@@H](O)[C@H](O[C@@H]2O[C@@H](C)[C@](O)(C=O)[C@H]2O[C@@H]2O[C@@H](CO)[C@H](O)[C@@H](O)[C@@H]2NC)[C@@H](N/C(N)=N\[H])[C@@H]1O [streptomycin (SM), streptomycin, reference compound]
MIC (M. tuberculosis H37Rv; MABA): 1 µg/mL (≈ 1.72 µM) | MIC [2]: 1 µg/mL (≈ 1.72 µM)
